According to patent US11026943B2, “Aminoquinoline derivatives and uses thereof” (UNIVERSITY OF DELHI, priority 2012, dated 2021):

Experiments:
[1] = tested on: neural precursor cells from E14 rat cortices; test: In vitro differentiation of Nurr1-transduced neural precursor cells into TH+ DA neurons; assay type: cell-based
Description: Error bars represent standard deviations.
Neural precursor cells (NPCs) from dissection of rat embryos days 14 cortices (E14) were proliferated in N2 medium supplemented with 20 ng/mL basic fibroblast growth factor (bFGF; R&D Systems, Minneapolis, Minn., USA). Following 3-4 days of bFGF-expansion, NPCs were dissociated in Ca^2+/Mg^2+-free Hank's balanced salt solution (CMF-HBSS, Invitrogen, Carlsbad, Calif.) and re-plated onto coverslips (12 mm diameter; Carolina Biological Supply Company, Burlington, N.C.) at 32,000 cells/coverslip pre-coated with poly-L-ornithine (PLO; […], Sigma, St Louis, Mo.) at 37° C. overnight followed by fibronectin (FN; […], Sigma) overnight. Prior to drug treatment, NPCs were transduced with Nurr1-expressing retrovirus of MOI 5 in the presence of polybrene (1 μg/ml, Sigma), cultured overnight in N2, and then differentiated. Getting started chemical treatment (every day for 2 hours), bFGF was not added anymore^3.
Cells were fixed in 4% paraformaldehyde (PFA) for 20 min, washed and then incubated with blocking buffer [PBS, 10% goat serum (Invitrogen), 0.3% Triton X-100 (Sigma)] for 1 hour. […] Following washes with PBS, appropriate fluorescence-tagged secondary antibodies (Jackson Immunoresearch Laboratories, West Grove, Pa.) were used for visualization. […]

[2] = biological target: T1, Nurr1 LBD with SRC-1/SRC-3 (Mus musculus, UniProt Q06219); test: Nurr1 LBD transactivation with VP16-SRC1/VP16-SRC3 overexpression; assay type: cell-based; conditions: 30 μM AQ or 100 μM CQ for 16 hours
T1 construct: The Nurr1 LBD fragment from amino acid position 328 to amino acid position 598 was PCR-amplified; expressed in transfected cells; host or cells: SK-N-BE(2)C human neuroblastoma cells
T1 sequence (Q06219 328-598): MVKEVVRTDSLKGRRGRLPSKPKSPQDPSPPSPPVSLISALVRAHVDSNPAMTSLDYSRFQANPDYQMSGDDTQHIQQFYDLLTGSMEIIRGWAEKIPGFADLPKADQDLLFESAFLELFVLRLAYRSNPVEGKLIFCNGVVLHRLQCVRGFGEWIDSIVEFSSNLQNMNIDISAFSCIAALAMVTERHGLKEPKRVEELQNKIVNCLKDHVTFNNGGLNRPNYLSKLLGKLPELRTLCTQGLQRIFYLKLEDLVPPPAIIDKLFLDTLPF

Nurr1 = biological target: T2, Nurr1 (Mus musculus, UniProt Q06219); test: High-throughput cell-based screen of Nurr1-dependent TH promoter activation; conditions: library of 960 FDA-approved drugs
T2 construct: Full-length mouse Nurr1cDNA was amplified by RT-PCR from pSV40Nurr1; expressed in transfected cells; host or cells: SK-N-BE(2)C human neuroblastoma cells
T2 sequence (Q06219 whole entry): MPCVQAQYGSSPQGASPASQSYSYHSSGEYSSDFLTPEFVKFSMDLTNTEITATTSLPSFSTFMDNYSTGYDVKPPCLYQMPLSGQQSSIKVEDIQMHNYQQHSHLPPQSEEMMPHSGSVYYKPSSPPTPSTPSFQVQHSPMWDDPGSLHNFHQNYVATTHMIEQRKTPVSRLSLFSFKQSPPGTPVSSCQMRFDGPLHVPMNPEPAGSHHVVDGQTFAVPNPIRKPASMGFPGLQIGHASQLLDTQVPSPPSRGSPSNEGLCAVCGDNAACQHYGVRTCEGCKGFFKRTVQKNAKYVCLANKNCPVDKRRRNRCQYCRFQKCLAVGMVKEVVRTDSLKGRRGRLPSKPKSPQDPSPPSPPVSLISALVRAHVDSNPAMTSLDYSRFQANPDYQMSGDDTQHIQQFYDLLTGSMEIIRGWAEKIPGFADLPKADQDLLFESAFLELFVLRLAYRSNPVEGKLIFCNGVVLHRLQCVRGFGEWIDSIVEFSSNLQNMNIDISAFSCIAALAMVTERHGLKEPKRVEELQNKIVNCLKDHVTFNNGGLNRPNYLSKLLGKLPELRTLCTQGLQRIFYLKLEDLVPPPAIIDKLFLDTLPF
Description: The pTH2600LUC reporter construct contains the 2.6 kb upstream sequences of the rat tyrosine hydroxylase gene in front of a firefly luciferase gene in pGL3-basic vector. A Nurr1-expression plasmid, pSV40Nurr1, was kindly provided by Dr Orla M. Conneely at Baylor College of Medicine (Houston, Tex., USA). Full-length mouse Nurr1cDNA was amplified by RT-PCR from pSV40Nurr1 using forward 5′-[sequence]-3′ (SEQ ID NO: 1) and reverse 5′-[sequence]-3′ (SEQ ID NO: 2) oligonucleotides.
(§1) Human neuroblastoma SK-N-BE(2)C cells were maintained in Dulbecco's modified Eagle's medium (DMEM) supplemented with 10% fetal bovine serum. All culture media contained 100 units/ml penicillin and 100 μg/ml streptomycin. For transfection, cells were plated at 1.5×10^5 cells/well in the DMEM media without antibiotic into 24-well plates 1 day prior to transfection. Transfections were carried out by the Lipofectamine plus (Invitrogen) according to the manufacture's protocol. Total DNA amount was 0.5 μg per well with 0.1 μg of pRSV-β-gal as an internal control. 6 hours after transfection, compounds in the DMEM media with 1% charcoal-stripped fetal calf serum was added and incubated overnight. […] Then equal volume of firefly luciferase substrate was added and the luciferase activity was measured using a Luminometer plate reader and normalized for beta-galactosidase activity.

Nurr1 LBD = Nurr1 LBD (Mus musculus, UniProt Q06219); test: Filter binding assay with [3H]-CQ (saturation and competition); conditions: 500 nM [3H]-CQ
Chain of Nurr1 LBD (Q06219 328-598): as the sequence (Q06219 328-598) above
Excerpt: The basal level of transcriptional activity was normalized to 1. The bars represent means±SEM from three independent experiments. (FIG. 13C) Effect of Nurr1 specific siRNA on Nurr1 LBD's transactivation activity. […] (FIG. 13D) Human neuroblastoma SK-N-BE(2)C cells were transfected with the N-terminal flag-tagged SRC1 or SRC3 and the C-terminal myc-tagged full-length Nurr1. […] Cell lysates were immunoprecipitated (IP) using anti-flag antibodies and analyzed by immunoblotting (IB) using anti-myc antibodies. […] The fold induction was derived by comparing each luciferase activity to basal level obtained by non-SRC transfection. […] The concentrations (04) are shown next to the arrows. […] Specific binding was calculated as the difference of total and non-specific binding. The insert indicates Scatchard analysis of the specific binding. […] The data represent the average of triplicate from three independent experiments. All graphs, Kd, Ki, and Bmax values were generated using the non-linear regression program Prism version 5.02.
GF/C filters were wet with in binding buffer and placed on a 48-place filter manifold. […] Filters were washed with 4×100 ml binding buffer, dried, and mixed with 5 ml Scintiverse BD (Fisher) and radioactivity was determined in a Beckman LS6000SC liquid scintillation counter. […] The mixture was applied to GF/C filter and filter was washed and counted as described above.

[3] = tested on: LBDs of Nur77, GR, LXR, RXR, PPARα, PPARγ; test: Target selectivity: GAL4-LBD reporter assays of other nuclear receptors; assay type: cell-based; conditions: FIG. 19; 30 μM AQ
Description: The positive reactivity of these NR constructs was confirmed by the known activators (2 nM dexamethasone, 20 nM retinoic acid, 2 μM GW3965, 50 nM GW7647, and 5 nM GW1929 for GR, RXR, LXR, PPARα, and PPARγ, respectively). The basal level of transcriptional activity was normalized to 1. Bars represent means±SEM from three independent experiments.
as §1

CCN(CC)Cc1cc(Nc2ccnc3cc(Cl)ccc23)ccc1O [AQ, amodiaquine]
number of TH+ neurons generated from neural stem cells [1]: enhanced
mRNA expression levels of TH, DAT, VMAT and AADC genes ([1]; in vitro differentiation for 9 d): enhanced
Nurr1 transcriptional function with SRC-1/SRC-3 overexpression [2]: further enhanced
screen outcome (Nurr1): hit compounds
Ki (Nurr1 LBD): 246 nM
transcriptional activity of other nuclear receptors [3]: unable to induce
